Laboratory results as given in the NIST ThermoML archive (doi:10.1016/j.tca.2015.10.014).

Settings: Crystal, Calculated from knudsen effusion weight loss

[Br-].[Br-].[Pb+2] [lead(II) bromide]
Settings	vapor or sublimation pressure [kPa]
532.3 K	7e-06
533 K	8e-06
533.1 K	8e-06
553.2 K	3.6e-05
553.7 K	2.6e-05
553.9 K	2.7e-05
571.5 K	6.1e-05
572.5 K	7.8e-05
573.7 K	7.5e-05
590.8 K	0.000233
591.9 K	0.000178
592.6 K	0.0002
611.3 K	0.000418
611.5 K	0.000573
612.9 K	0.000512
632.7 K	0.000886
633.5 K	0.001153
633.9 K	0.001334
